Data reported in patent US6653304B2, “Cannabinoid receptor modulators, their processes of preparation, and use of cannabinoid receptor modulators for treating respiratory and non-respiratory diseases” (Bristol-Myers Squibb Co., priority 2000, dated 2003).

Test system: human lung epithelial cell lines H292 and A549
Assay: Activation of lung epithelial cells
Assay type: cell-based
Method: (2) Activation of Lung Epithelial Cells
The ability of the cannabinoids to inhibit mucin, chemokine/cytokine production from lung epithelial cells is evaluated with human lung epithelial cell lines H292 and A549. Epithelial cells are cultured overnight in 48 well microtiter plates in complete RMPI […] (200 μl/well) at a density of 2×10^5 cells/ml. The media is removed and replaced with fresh media. Test compounds in 50 μl isotonic buffer are added and incubated for 1 hour at 37° C. Cell activation is triggered by the addition of a stimulatory agent comprising one of EGF, smoke conditioned media, TNF-α or IL-1β. In this assay, the IC50 for Win-55212-2<20 mcM. After a desired period of time (e.g., 24 h) the cell supernatants are removed and assayed for mucin cytokine and chemokines by ELISA. The cannabinoid agonists inhibit mucin and IL-8 production from lung epithelial cells.

Cc1c(C(=O)c2cccc3ccccc23)c2cccc3c2n1[C@H](CN1CCOCC1)CO3 [Win-55212-2]
activity in the lung epithelial cell assay: demonstrated activity | IC50 (stimulated with EGF, smoke conditioned media, TNF-α or IL-1β, mucin, cytokine and chemokines by ELISA): < 20 µM
